Test results from PubChem BioAssay (NCI).
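Where inhibition never reached the appropriate level, the endpoint shown equals the highest concentration tested. Otherwise, values were interpolated linearly from a five-concentration, 48-hour dose response in 96-well plates. Here, GI50 denotes the concentration required for 50% inhibition of growth. TGI is the concentration that stops growth completely.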

Legend:
Assay in all cases: DTP human tumour cell line panel, 48 h
NCI-H226 lung = system: NCI-H226 lung
HOP-62 NSCLC = system: HOP-62 NSCLC
UO-31 renal = system: UO-31 renal
T-47D breast = system: T-47D breast
IGROV1 ovarian = system: IGROV1 ovarian
A549 NSCLC = system: A549 NSCLC
ACHN renal = system: ACHN renal
MDA-MB-435 = system: MDA-MB-435
NCI-H522 lung = system: NCI-H522 lung
HOP-92 NSCLC = system: HOP-92 NSCLC

Structure (SMILES) | TGI (NCI-H226 lung) [µM] | TGI (HOP-62 NSCLC) [µM] | TGI (UO-31 renal) [µM] | TGI (T-47D breast) [µM] | TGI (IGROV1 ovarian) [µM] | TGI (A549 NSCLC) [µM] | TGI (ACHN renal) [µM] | TGI (MDA-MB-435) [µM] | GI50 (NCI-H226 lung) [µM] | GI50 (HOP-62 NSCLC) [µM] | GI50 (UO-31 renal) [µM] | GI50 (NCI-H522 lung) [µM] | TGI (NCI-H522 lung) [µM] | GI50 (HOP-92 NSCLC) [µM] | TGI (HOP-92 NSCLC) [µM] | GI50 (IGROV1 ovarian) [µM] | GI50 (A549 NSCLC) [µM] | GI50 (ACHN renal) [µM] | GI50 (MDA-MB-435) [µM]
COc1ccc2nc3ccccc3c(NCCCCN(CCCl)CCCl)c2c1 | 9.65 | 24.8 | 2.29 | 13.8 | 17.7 | 6.25 | 1.15 | 21.4 |  |  |  |  |  |  |  |  |  |  | 
CSc1ccc(C(=O)/C=C/c2ccc(Cl)cc2Cl)cc1 | 82.9 | 37.5 | 81.7 |  | 31.9 | 40.5 | 55.6 | 88.3 | 26 | 19.6 | 22.4 | 14.4 | 37.2 | 40.2 | > 100 | 15.6 | 17.7 | 23.7 | 26.3
COC(=O)[C@@]12C3=NO[C@]1(C(=O)OC)C(O[Si](C)(C)C(C)(C)C)[C@@H](OC(C)=O)[C@@H](OC(C)=O)[C@@H]2[C@@H](OCc1ccccc1)CC3 (stereo partly drawn) | > 100 | > 100 | > 100 |  | > 100 | > 100 | > 100 |  |  |  |  |  | > 100 |  | > 26.1 |  |  |  | 
COc1ccc2c(c1)[n+]([O-])c(-c1ccccc1Cl)c(N)[n+]2[O-] | > 100 | > 100 | > 100 |  | > 100 | > 100 | > 100 |  |  |  |  |  | 31.3 |  | > 100 |  |  |  | 
CC(=O)[CH-]C(=O)c1ccccc1.CC(=O)[CH-]C(=O)c1ccccc1.CC(=O)[CH-]C(=O)c1ccccc1.[Ga+3] | 43.5 | 60.9 | 76.2 |  | 46.4 | > 100 | > 100 |  | 16.8 | 29 | 26.7 | 12.1 | 25 | 29.8 | 51.9 | 18.6 | 34.4 | 30.3 | 
COC1/C(=C\C(C)=O)c2ccccc2N1C(C)=O (stereo not drawn) |  | > 100 | > 100 |  | > 100 | > 100 | > 100 |  |  |  |  |  |  |  | > 100 |  |  |  | 
CCN(CC)C(=S)SS(C)(=O)=O | 31.3 | 40.2 | 37.3 |  | > 100 |  | 31.8 |  |  |  |  |  | 0.137 |  | 54.2 |  |  |  | 
CCN(CC)c1c(C)nnn1C1OC(COC(C)=O)C(OC(C)=O)C(OC(C)=O)C1OC(C)=O (stereo not drawn) | > 100 | > 100 | > 100 |  | > 100 | > 100 | > 100 |  |  |  |  |  | > 100 |  | > 100 |  |  |  | 
O=C1C(Cl)=C(NCCCN(CCCNC2=C(Cl)C(=O)c3ccccc3C2=O)C2=C(Cl)C(=O)c3ccccc3C2=O)C(=O)c2ccccc21 | 35.1 | 42.3 | 5.93 |  | 6.13 | > 100 |  | 3.26 | 17.3 | 3.8 | 1.25 | 1.97 | 4.98 | 2.23 | 14 | 1.76 | 3.43 |  | 1.74
CCN(CC)c1ccc(C2N3CCCCC3[C@@H]3c4[nH]c5ccccc5c4CCN23)cc1 (stereo partly drawn) |  | > 100 | > 100 |  | > 100 | > 100 | 74.7 |  |  |  |  |  |  |  | > 100 |  |  |  | 
NC(=O)c1ncn(C2OC(CO)C(O)C2O)c1O (stereo not drawn) | > 100 | > 100 | > 100 |  | > 100 | > 100 | > 100 |  |  |  |  |  |  |  | > 100 |  |  |  | 
